Data set [1] has as its system L1210 cells, DNA synthesis. The experiment in a line: Inhibition of DNA synthesis (14C-thymidine incorporation) in L1210 cells. The class given is cell-based, mouse. The following applies: RPMI 1640 with 10% calf serum, pulse-labeling 60 minutes at 37° C.; for IC50: Mus musculus, L1210, 1 h, read-out: 50% Inhibitory concentration, 14C-Thymidine (Inhibition of DNA synthesis). As to the method: (§1) Independently of the above-mentioned experiment, the compounds of the present invention were added to an about 5×10^5 cells/ml L1210 cell suspension in RPMI 1640 medium containing 10% calf serum at a concentration of 0.02-2.5 μg/ml. After 15 minutes, ^14 -C-uridine (0.05 μCi/ml) or ^14 C-thymidine (0.05 μCi/ml) was added to the suspension and pulse-labeling was carried out at 37° C. for 60 minutes. The reaction was stopped by addition of a cold 10% trichloroacetic acid solution and an acid-insoluble fraction was precipitated. The precipitate was washed with a cold 5% trichloroacetic acid and the radioactivity was measured.
(In general: Dividing cells build labelled thymidine or BrdU into new DNA.)

The next data set is described as follows: Solubility. The class given is physicochemical. As to the method: Solubilities of the compounds of the present invention, β-rhodomycinone-RDA, -RDRs, and -RD are similar. […] The color of the solutions, when they are dissolved, is red or reddish yellow, which is changed to violet in alkaline solution.
Data set [2] deals with L1210 cells, RNA synthesis. The experiment in a line: Inhibition of RNA synthesis (14C-uridine incorporation) in L1210 cells. Particulars: RPMI 1640 with 10% calf serum, pulse-labeling 60 minutes at 37° C.; for IC50: Mus musculus, L1210, 1 h, read-out: 50% Inhibitory concentration, 14C-Uridine (Inhibition of RNA synthesis). The format is cell-based, mouse. As to the method: as §1

In the next data set the test system is L1210 leukemia cells. In words: Growth inhibition of cultured mouse leukemia L1210 cells (48 hours, viable cell count). The format is cell-based. Particulars: for IC50: Mus musculus, L1210, 48 h, read-out: 50% Inhibitory concentration, Growth inhibition after 48 hours; for antitumor effect on L1210 leukemia cells: result in words. As to the method: The L1210 cells were cultivated at 37° C. overnight and transferred to RPMI (Roswell Park Memorial Institute) 1640 medium containing 20% calf serum at their exponential growth phase so as to give a cell concentration of 4×10^4 cells/ml. The compounds of the present invention were added to the medium at a concentration of 0.01-0.25 μg/ml. Incubation was performed in a CO2 -incubator at 37° C. for 2 days and then the number of viable cells was counted.
as §1

Data set [3] in a line: Acute toxicity in mice upon a single intraabdominal injection. The class given is in vivo. Particulars: mouse, in vivo, ip.
A further data set relates to mice. Described as above. The format is in vivo.
Setting [4] is: in acidic water, methanol, ethanol, n-butanol, acetone, ethyl acetate, chloroform, benzene, toluene, dimethylsulfoxide and methyl cellosolve.
[5] abbreviates: L1210 cells, RPMI 1640 with 20% calf serum, 37° C., 48 hours.

In brackets after ≈: the same amount, converted by molar mass.

The term LD50 denotes the dose at which mortality reaches 50%. A lower LD50 goes with greater toxicity. Take `CCC1(O)CC(OC2CC(N(C)C)C(OC3CC(O)C(OC4CCC(O)C(C)O4)C(C)O3)C(C)O2)c2c(O)c3c(c(O)c2C1O)C(=O)c1cccc(O)c1C3=O` (stereo not drawn) [β-Rhodomycinone-RDA]: the IC50 turned out to be 0.52 µg/mL (≈ 0.66 µM) in data set [1], 0.095 µg/mL (≈ 0.121 µM) in data set [2] and 0.028 µg/mL (≈ 0.0355 µM) in the data set with L1210 leukemia cells (setting [5]). For the same compound, the Solubility entry is recorded as “soluble” in “Solubility” (setting [4]); “slightly soluble” in the data set “Solubility” (in water, ether and n-hexane). The “antitumor effect on L1210 leukemia cells” value with L1210 leukemia cells was “have an antitumor effect on L1210 leukemia cells”. In data set [3], the LD50 was 40.6 mg/kg.
For the compound `CCC1(O)CC(OC2CC(N(C)C)C(OC3CC(O)C(OC4CCC(=O)C(C)O4)C(C)O3)C(C)O2)c2c(O)c3c(c(O)c2C1O)C(=O)c1cccc(O)c1C3=O` (stereo not drawn) [β-Rhodomycinone-RDC, reference compound], the IC50 in data set [1] was 0.45 µg/mL (≈ 0.573 µM); in data set [2] it was 0.07 µg/mL (≈ 0.0891 µM); in the data set with L1210 leukemia cells (setting [5]), 0.01 µg/mL (≈ 0.0127 µM).
As for `CCC1(O)CC(OC2CC(N(C)C)C(OC3CC(O)C(OC4CCC(O)C(C)O4)C(C)O3)C(C)O2)c2c(O)c3c(c(O)c2C1O)C(=O)c1cccc(O)c1C3=O` (stereo not drawn) [β-Rhodomycinone-RDRs], the “50% Inhibitory concentration, 14C-Thymidine (Inhibition of DNA synthesis)” value in data set [1] amounted to 0.54 µg/mL. Also, the Solubility result in “Solubility” (setting [4]) is “soluble”; in “Solubility” (in water, ether and n-hexane) it was “slightly soluble”. The “50% Inhibitory concentration, 14C-Uridine (Inhibition of RNA synthesis)” value in data set [2] worked out at 0.085 µg/mL. Further, in the data set on L1210 leukemia cells (setting [5]), the “50% Inhibitory concentration, Growth inhibition after 48 hours” value was 0.016 µg/mL. Besides, the “antitumor effect on L1210 leukemia cells” value in the data set with L1210 leukemia cells is given as “have an antitumor effect on L1210 leukemia cells”. For the same compound, in the data set on mice, the “acute toxicity (LD50 value)” value was found to be 35.3 mg/kg.
For the compound `CCC1(O)CC(OC2CC(N(C)C)C(OC3CC(O)C(O)C(C)O3)C(C)O2)c2c(O)c3c(c(O)c2C1O)C(=O)c1cccc(O)c1C3=O` (stereo not drawn) [β-Rhodomycinone-RD], the IC50 worked out at 0.36 µg/mL (≈ 0.534 µM) in data set [1], 0.13 µg/mL (≈ 0.193 µM) in data set [2] and 0.01 µg/mL (≈ 0.0148 µM) in the data set on L1210 leukemia cells (setting [5]). The Solubility result is “soluble” in “Solubility” (setting [4]); “slightly soluble” in “Solubility” (in water, ether and n-hexane). Besides, the “antitumor effect on L1210 leukemia cells” value in the data set with L1210 leukemia cells was “have an antitumor effect on L1210 leukemia cells”. This compound registered an LD50 in data set [3] of 25.5 mg/kg.

The values are drawn from patent US4439603A, “Anthracycline derivatives of β-rhodomycinone glycosides” (Sanraku-Ocean Co., Ltd., priority 1981, dated 1984).
